Assay results as given in PubChem BioAssay AID1963858 (Molecular Pharmacology Branch, DTP, NCI, 2024).
pIC50: −log10 of the molar value.

Test system: HOP-62 multicell spheroids with HUVEC/MSC, viability
Assay: Anticancer human tumor HOP-62 cell line growth inhibition [KRAS2];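 further: viability read after a week of compound exposure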;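 on viability, T/C: 100% = DMSO vehicle-treated spheroids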
Conditions: for pIC50: curve of first compound; for viability, T/C: stronger effect = lower value
In short: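 KRAS-mutant tumor cells were grown as spheroids with HUVEC endothelial cells and human MSCs as stroma. Targeted agents were tested alone and with KRAS pathway inhibitors. Doses started at or near clinical Cmax, or 10 microM, descending half-log.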

[1] = second compound 0.1 µM, first compound 0.0316 µM
[2] = second compound 0.1 µM, first compound 0.1 µM
[3] = second compound 0.316 µM, first compound 0.0316 µM
[4] = second compound 0.316 µM, first compound 0.1 µM
[5] = second compound 1 µM, first compound 0.0316 µM
[6] = second compound 1 µM, first compound 0.1 µM
[7] = second compound 3.16 µM, first compound 0.0316 µM
[8] = second compound 3.16 µM, first compound 0.1 µM
[9] = second compound 10 µM, first compound 0.0316 µM
[10] = second compound 10 µM, first compound 0.1 µM
[11] = second compound 0.1 µM, first compound 0.316 µM
[12] = second compound 0.1 µM, first compound 1 µM
[13] = second compound 0.1 µM, first compound 3.16 µM
[14] = second compound 0.1 µM, first compound 10 µM
[15] = second compound 0.316 µM, first compound 0.316 µM
[16] = second compound 0.316 µM, first compound 1 µM
[17] = second compound 0.316 µM, first compound 3.16 µM
[18] = second compound 0.316 µM, first compound 10 µM
[19] = second compound 1 µM, first compound 0.316 µM
[20] = second compound 1 µM, first compound 1 µM
[21] = second compound 1 µM, first compound 3.16 µM
[22] = second compound 1 µM, first compound 10 µM
[23] = second compound 3.16 µM, first compound 0.316 µM
[24] = second compound 3.16 µM, first compound 1 µM
[25] = second compound 3.16 µM, first compound 3.16 µM
[26] = second compound 3.16 µM, first compound 10 µM
[27] = second compound 10 µM, first compound 0.316 µM
[28] = second compound 10 µM, first compound 1 µM
[29] = second compound 10 µM, first compound 3.16 µM
[30] = second compound 10 µM, first compound 10 µM

Row | SMILES | pIC50 (second compound 0.1 µM) | pIC50 (second compound 0.316 µM) | pIC50 (second compound 1 µM) | pIC50 (second compound 3.16 µM) | pIC50 (second compound 10 µM) | viability, T/C [1] [%] | viability, T/C [2] [%] | viability, T/C [3] [%] | viability, T/C [4] [%] | viability, T/C [5] [%] | viability, T/C [6] [%] | viability, T/C [7] [%] | viability, T/C [8] [%] | viability, T/C [9] [%] | viability, T/C [10] [%] | viability, T/C [11] [%] | viability, T/C [12] [%] | viability, T/C [13] [%] | viability, T/C [14] [%] | viability, T/C [15] [%] | further results
1 | CN(C)C/C=C/C(=O)Nc1cc2c(Nc3ccc(F)c(Cl)c3)ncnc2cc1O[C@H]1CCOC1 + C=CC(=O)N1CCN(c2nc(=O)n(-c3c(C)ccnc3C(C)C)c3nc(-c4c(O)cccc4F)c(F)cc23)C(C)C1 | < 7.00 | < 7.00 | < 7.00 | < 7.00 | 7.72 | 54.4 | 65.7 | 51.1 | 58 | 61.1 | 62.4 | 63.4 | 54 | 48.6 | 42.3 |  |  |  |  |  | viability, T/C (second compound 0.1 µM, first compound 0.000316 µM): 65.1%; viability, T/C (second compound 0.1 µM, first compound 0.001 µM): 69.1%; viability, T/C (second compound 0.1 µM, first compound 0.00316 µM): 67.8%; viability, T/C (second compound 0.1 µM, first compound 0.01 µM): 58.9%; viability, T/C (second compound 0.316 µM, first compound 0.000316 µM): 79.5%; viability, T/C (second compound 0.316 µM, first compound 0.001 µM): 69.9%; viability, T/C (second compound 0.316 µM, first compound 0.00316 µM): 66%; viability, T/C (second compound 0.316 µM, first compound 0.01 µM): 65%; viability, T/C (second compound 1 µM, first compound 0.000316 µM): 81.1%; viability, T/C (second compound 1 µM, first compound 0.001 µM): 80.5%; viability, T/C (second compound 1 µM, first compound 0.00316 µM): 61.9%; viability, T/C (second compound 1 µM, first compound 0.01 µM): 69.8%; viability, T/C (second compound 3.16 µM, first compound 0.000316 µM): 71.5%; viability, T/C (second compound 3.16 µM, first compound 0.001 µM): 65.1%; viability, T/C (second compound 3.16 µM, first compound 0.00316 µM): 70.9%; viability, T/C (second compound 3.16 µM, first compound 0.01 µM): 71.8%; viability, T/C (second compound 10 µM, first compound 0.000316 µM): 56.9%; viability, T/C (second compound 10 µM, first compound 0.001 µM): 51.1%; viability, T/C (second compound 10 µM, first compound 0.00316 µM): 54.5%; viability, T/C (second compound 10 µM, first compound 0.01 µM): 52%
2 | CC1(C)CCC(CN2CCN(c3ccc(C(=O)NS(=O)(=O)c4ccc(NCC5CCOCC5)c([N+](=O)[O-])c4)c(Oc4cnc5[nH]ccc5c4)c3)CC2)=C(c2ccc(Cl)cc2)C1 + COc1cc2nc(C)nc(NC(C)c3cc(N)cc(C(F)(F)F)c3)c2cc1OC1CCOC1 | 5.37 | 5.34 | 5.46 | 5.78 | 6.43 | 84.1 | 92.3 | 87.5 | 88.7 | 85.1 | 88 | 78 | 75.6 | 55.6 | 56 | 79.6 | 82.6 | 58 | 26 | 78.2 | viability, T/C [16]: 75.3%; viability, T/C [17]: 65%; viability, T/C [18]: 23.2%; viability, T/C [19]: 78.9%; viability, T/C [20]: 64.6%; viability, T/C [21]: 57.8%; viability, T/C [22]: 14.5%; viability, T/C [23]: 62.8%; viability, T/C [24]: 62.2%; viability, T/C [25]: 38.5%; viability, T/C [26]: 26%; viability, T/C [27]: 52.8%; viability, T/C [28]: 39.5%; viability, T/C [29]: 24%; viability, T/C [30]: 7.27%
3 | CC1OCC2(CCN(c3cnc(Sc4ccnc(N)c4Cl)c(N)n3)CC2)C1N (stereo not given) + C=CC(=O)N1CCN(c2nc(=O)n(-c3c(C)ccnc3C(C)C)c3nc(-c4c(O)cccc4F)c(F)cc23)C(C)C1 | > 7.50 | 7.21 | 7.04 | 6.87 | > 7.50 | 47.7 | 39.1 | 63.7 | 39.8 | 67.5 | 47 | 61 | 51.7 | 44.6 | 40.7 | 26.5 | 16.3 | 12.5 | 13.3 | 28.4 | viability, T/C [16]: 19.2%; viability, T/C [17]: 15.6%; viability, T/C [18]: 13.6%; viability, T/C [19]: 36.9%; viability, T/C [20]: 27.4%; viability, T/C [21]: 18.2%; viability, T/C [22]: 21.5%; viability, T/C [23]: 42.5%; viability, T/C [24]: 30.1%; viability, T/C [25]: 24.1%; viability, T/C [26]: 24.9%; viability, T/C [27]: 30.1%; viability, T/C [28]: 26.2%; viability, T/C [29]: 25.8%; viability, T/C [30]: 23.2%
4 | COC(=O)c1ccc2c(C(=Nc3ccc(N(C)C(=O)CN4CCN(C)CC4)cc3)c3ccccc3)c(O)[nH]c2c1 + COc1cc2nc(C)nc(NC(C)c3cc(N)cc(C(F)(F)F)c3)c2cc1OC1CCOC1 | 6.10 | 6.49 | 7.28 | > 7.50 | > 7.50 | 98.5 | 85.7 | 67 | 57.1 | 54 | 46.1 | 45.2 | 32.6 | 39.9 | 32.6 | 53 | 50.9 | 34.9 | 10.4 | 51.5 | viability, T/C [16]: 25.5%; viability, T/C [17]: 26.3%; viability, T/C [18]: 20.8%; viability, T/C [19]: 33.4%; viability, T/C [20]: 28.7%; viability, T/C [21]: 26.7%; viability, T/C [22]: 16.2%; viability, T/C [23]: 36.5%; viability, T/C [24]: 24.5%; viability, T/C [25]: 18.9%; viability, T/C [26]: 0.46%; viability, T/C [27]: 30.7%; viability, T/C [28]: 24.5%; viability, T/C [29]: 0.7%; viability, T/C [30]: 0.2%
